Consider three molecules from patent US20110071147A1, “4-AMINO-THIENO[3,2-C]PYRIDINE-7-CARBOXYLIC ACID AMIDES” (priority 2004, published 2011).

Structures are written as SMILES. Where a name gives a salt, the structure may show the parent alone.

Experiment [1] concerns the target T1, KDR (Homo sapiens, UniProt P35968).
T1 construct: EEE tag
Briefly: KDR kinase HTRF assay. To be noted: recombinant EEE-tagged KDR, 0.3 mM ATP. Format: biochemical. How it is done: (§1) To determine inhibition of KDR and FGFR, kinase assays were conducted using an HTRF (Homogeneous Time Resolved Fluorescence) assay. This assay is described in A. J. Kolb et. al., Drug Discovery Today, 1998, 3(7), p 333.
Prior to kinase reaction, recombinant EEE-tagged KDR was activated in the presence of activation buffer (50 mM HEPES, pH 7.4, 1 mM DTT, 10% glycerol, 150 mM NaCl, 0.1 mM EDTA, 26 mM MgCl2, and 4 mM ATP). The enzyme was incubated at 4° C. for 1 hour.
Kinase activity assays were performed in 96-well polypropylene plates (Falcon) with a total volume of 90 μL in each well. Each well contained 1 μM KDR substrate (Biotin-EEEEYFELVAKKKK), 1 nM activated KDR, and a test compound with one of 8 assay concentrations ranging from 100 μM to […] (1:5 serial dilution). The kinase activity assay was done in the presence of 100 mM HEPES, pH 7.4, 1 mM DTT, 0.1 mM Na2VO4, 25 mM MgCl2, 50 mM NaCl (from KDR stock solution), 1% DMSO (from compound), 0.3 mM ATP (at Km concentration) and 0.02% BSA. The reaction was incubated at 37° C. for 30 minutes. To stop the KDR reaction, 72 μL of reaction mixture was transferred into a STOP plate containing 18 μL of revelation buffer (20 mM EDTA, 50 mM HEPES, pH 7.4, 0.02% BSA, 10 nM Eu-labelled anti-pY antibody (final conc. 2 nM), and 100 nM streptavidin (final conc. 20 nM)). After mixing, 35 μL of solution was transferred into duplicate wells of a 384-well black plate (Costar), and read at 615/665 nm on a Wallac Victor 5 reader.
(§2) Compound IC50 values were determined from duplicate sets of data, and calculated by using Excel and fitting data to equation Y=[(a−b)/{1+(X/c)^d]+b, where a and b are enzyme activity in the presence of no test inhibitor compound and an infinite amount of inhibitor test compound, respectively, c is the IC50 and d is the hill constant of the compound response. The IC50 value is the concentration of test compound that reduces by 50% the enzyme activity under the test conditions described.

For experiment [2], the target named is T2, FGFR.
T2 construct: fused on or other part: GST tag
In words: FGFR kinase HTRF assay. Format: biochemical. The note with it: GST-tagged FGFR, 10 μM ATP. On the procedure: as §1
FGFR activity assays were carried out as described above for the KDR activity assay with the following differences. GST-tagged FGFR enzyme was activated at room temperature for 1 hour in the following activation buffer: 100 mM HEPES, pH 7.4, 50 mM NaCl, 20 mM MgCl2, and 4 mM ATP. The kinase activity assay was performed with 1 μM substrate (Biotin-EEEEYFELV), 1.5 nM activated FGFR, and test compound in the presence of 100 mM HEPES, 1 mM DTT, 0.4 mM MgCl2, 0.4 mM MnCl2, 50 mM NaCl, 1% DMSO, 10 μM ATP (Km=8.5 μM for FGFR), 0.1 mM Na2VO4, and 0.02% BSA, in a total volume of 90 μL. The rest of the assay was performed in the same manner as KDR assay.
as §2

Experiment [3] relates to VEGF-stimulated HUVEC. Briefly: VEGF-stimulated HUVEC proliferation assay (BrdU). The experiment is classed as cell-based. The note with it: Homo sapiens, VEGF 20 ng per mL, BrdU ELISA, read-out: VEGF-HUVEC (IC50, BrdU labeling). On the procedure:
(§3) The antiproliferative activity of test compounds of this invention in cell-based assays was evaluated by BrdU assay using the BrdU kit (Roche Biochemicals 1-647-229). Human umbilical vein endothelial cells (HUVEC, Clonetics CC-2519) were cultured in EGM-2 (Clonetics CC-3162) medium and seeded at 10000 cells per well in a volume of 200 μL of EGM-2 (Clonetics CC-3162) media in a 96-well flat bottom plates (Costar 3595) overnight. After 24 hours of growth at 37° C. with 5% CO2, the incubation media was removed slowly by aspiration and the content of each well was washed with 300 μL pre-warmed EBM-2 (Clonetics CC-3156) containing 50 μg per mL of gentamycin and 50 ng per mL of amphotercin-B (Clonetics CC-4083). […]
(§4) After 24 hour exposure to the test compounds, the cells were labeled with BrdU (Roche Biochemicals 1-647-229), by adding 20 μL per well of BrdU labeling reagent that has been diluted (1:100) in serum starvation medium. […] The plates were read at 450 nm with reference wavelength of 650 nm. The percent inhibition for each test compound was calculated by subtracting the absorbency of the blank (no cells) wells from all wells, then subtracting the division of the average absorbency of each test duplicate by the average of the controls from 1. […] The IC50 is determined from the linear regression of a plot of the logarithm of the concentration versus percent inhibition.

Experiment [4] relates to FGF-stimulated HUVEC. In words: FGF-stimulated HUVEC proliferation assay (BrdU). The experiment is classed as cell-based. The note with it: Homo sapiens, FGF 5 ng per mL, BrdU ELISA, read-out: FGF-HUVEC (IC50, BrdU labeling). How it is done:
as §3, §4
For orientation: Dividing cells build labelled thymidine or BrdU into new DNA.

T1 sequence (P35968 20-1356): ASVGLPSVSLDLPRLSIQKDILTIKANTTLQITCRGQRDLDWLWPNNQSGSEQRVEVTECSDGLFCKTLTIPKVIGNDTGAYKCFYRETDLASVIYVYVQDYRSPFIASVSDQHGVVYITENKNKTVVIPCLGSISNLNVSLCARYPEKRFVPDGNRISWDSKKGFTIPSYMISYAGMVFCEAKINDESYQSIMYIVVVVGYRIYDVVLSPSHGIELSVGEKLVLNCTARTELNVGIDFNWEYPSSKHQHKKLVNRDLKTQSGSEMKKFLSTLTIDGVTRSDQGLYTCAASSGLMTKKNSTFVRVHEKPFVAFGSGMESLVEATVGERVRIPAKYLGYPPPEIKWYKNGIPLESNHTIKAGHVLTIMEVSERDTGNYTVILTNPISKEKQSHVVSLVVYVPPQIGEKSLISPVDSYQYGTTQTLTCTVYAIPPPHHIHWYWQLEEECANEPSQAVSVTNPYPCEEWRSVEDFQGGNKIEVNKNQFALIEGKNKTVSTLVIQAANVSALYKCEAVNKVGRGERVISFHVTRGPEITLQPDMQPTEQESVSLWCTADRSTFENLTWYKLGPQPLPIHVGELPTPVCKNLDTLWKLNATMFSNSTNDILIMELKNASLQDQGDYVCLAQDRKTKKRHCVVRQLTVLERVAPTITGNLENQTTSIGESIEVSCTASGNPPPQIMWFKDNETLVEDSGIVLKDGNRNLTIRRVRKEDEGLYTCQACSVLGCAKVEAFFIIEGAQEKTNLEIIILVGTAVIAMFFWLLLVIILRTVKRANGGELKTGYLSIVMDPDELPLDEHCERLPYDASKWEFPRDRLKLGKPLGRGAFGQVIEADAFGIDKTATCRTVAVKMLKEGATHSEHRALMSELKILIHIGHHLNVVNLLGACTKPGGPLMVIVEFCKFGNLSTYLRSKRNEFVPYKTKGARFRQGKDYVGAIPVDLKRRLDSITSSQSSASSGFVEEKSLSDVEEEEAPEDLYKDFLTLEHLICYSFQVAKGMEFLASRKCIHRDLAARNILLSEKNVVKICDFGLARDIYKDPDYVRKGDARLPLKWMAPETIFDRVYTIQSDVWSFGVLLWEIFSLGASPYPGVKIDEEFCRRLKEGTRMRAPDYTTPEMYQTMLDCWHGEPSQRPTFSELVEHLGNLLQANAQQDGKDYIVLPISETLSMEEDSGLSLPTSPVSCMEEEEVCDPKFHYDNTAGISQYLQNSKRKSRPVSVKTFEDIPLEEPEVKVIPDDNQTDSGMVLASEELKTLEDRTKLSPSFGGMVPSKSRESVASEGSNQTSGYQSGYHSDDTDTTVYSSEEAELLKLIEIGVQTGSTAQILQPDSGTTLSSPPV

In general, IC50 refers to the concentration that inhibits the measured activity by half. Regarding `Nc1ncc(C(=O)NCCN2CCOCC2)c2scc(COc3ccc(Br)cc3)c12` [Example 13b, 4-Amino-3-(4-bromo-phenoxymethyl)-thieno[3,2-c]pyridine-7-carboxylic acid (2-morpholin-4-yl-ethyl)-amide hydrochloride salt], the 50% inhibitory concentration (IC50) amounted to 58.4 nM in experiment [1], 180 nM in experiment [2], 204 nM in experiment [3] and 627 nM in experiment [4].
The corresponding values for `Nc1ncc(C(=O)NCCO)c2scc(COc3ccc(Br)cc3)c12` [Example 4a, 4-Amino-3-(4-bromo-phenoxymethyl)-thieno[3,2-c]pyridine-7-carboxylic acid (2-hydroxy-ethyl)-amide] are 20 nM, 72.4 nM, 264 nM and 2760 nM.
Take `COc1ccc(OCc2csc3c(C(=O)NCCO)cnc(N)c23)c(Cl)c1` [Example 2, 4-Amino-3-(2-chloro-4-methoxy-phenoxymethyl)-thieno[3,2-c]pyridine-7-carboxylic acid (2-hydroxy-ethyl)-amide]: the concentration for half-maximal inhibition (IC50) in experiment [1] was 509 nM.
